Values quoted from earlier work in patent US11337932B2, “Transdermal therapeutic system containing asenapine and polysiloxane or polyisobutylene” (LTS LOHMANN Therapie-Systeme AG, priority 2016, dated 2022).

How the values were obtained:
[1] = if ingested
[2] = biological target: serotonin 5-HT2A receptors (Homo sapiens, UniProt P28223); details: background statement; antagonist at dopamine D2 and serotonin 5-HT2A receptors
serotonin 5-HT2A receptors, sequence (P28223 whole entry): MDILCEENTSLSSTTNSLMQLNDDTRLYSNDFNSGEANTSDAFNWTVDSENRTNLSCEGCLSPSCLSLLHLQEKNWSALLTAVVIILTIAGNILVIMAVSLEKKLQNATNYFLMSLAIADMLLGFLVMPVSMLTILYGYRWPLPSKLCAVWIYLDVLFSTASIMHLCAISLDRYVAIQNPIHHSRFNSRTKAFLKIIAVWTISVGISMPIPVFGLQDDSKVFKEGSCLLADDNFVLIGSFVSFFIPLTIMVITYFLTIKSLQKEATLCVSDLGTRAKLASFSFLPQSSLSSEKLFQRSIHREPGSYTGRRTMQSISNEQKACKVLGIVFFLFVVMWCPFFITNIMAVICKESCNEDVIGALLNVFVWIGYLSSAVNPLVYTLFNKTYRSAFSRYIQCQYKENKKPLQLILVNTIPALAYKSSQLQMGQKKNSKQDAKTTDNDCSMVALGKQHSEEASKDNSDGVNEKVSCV

CN1C[C@H]2c3ccccc3Oc3ccc(Cl)cc3[C@@H]2C1 (relative stereo) [asenapine, (3aRS,12bRS)-rel-5-chloro-2,3,3a,12b-tetrahydro-2-methyl-1H-dibenz[2,3:6,7]oxepino[4,5-c]pyrrole]
bioavailability [1]: < 2%
affinity [2]: high affinity
